# According to ChEMBL document CHEMBL1131273, “Unsymmetric nonpeptidic HIV protease inhibitors containing anthranilamide as a P2' ligand” (Bioorg Med Chem Lett, 1998):
# What was measured:
# CCRF-CEM [1] = assay: Antiviral activity against HIV-I 3b in CEM cells; assay type: functional, cell-based; conditions: Homo sapiens
# [2] = biological target: Human immunodeficiency virus type 1 protease (Human immunodeficiency virus 1, UniProt Q72874); assay: Inhibitory activity against HIV protease
# CCRF-CEM [3] = assay: Compound was tested for cellular toxicity against CEM cell line; assay type: functional, cell-based; conditions: Homo sapiens
# CCRF-CEM [4] = assay: Antiviral activity against HIV-I 3b in CEM cells; No activity; assay type: functional, cell-based, Homo sapiens
# [5] = Oral bioavailability in rat; assay type: ADME, organism-based; conditions: in vivo
# [6] = Maximum plasma concentration of compound present in rats at the dose of 38 mg/kg in 15 min; assay type: ADME, organism-based; parameters: dose 38 mg/kg; conditions: rat
# [7] = biological target: Human immunodeficiency virus type 1 protease (Human immunodeficiency virus 1) (UniProt Q72874); assay: Compound was tested for inhibitory activity against HIV protease; conditions: concentration not given here
# [8] = Maximum plasma concentration of compound present in rats at the dose of 37 mg/kg in 15 min; assay type: ADME, organism-based; parameters: dose 37 mg/kg; conditions: rat
# [9] = Biological half-life was measured in plasma of rats; assay type: ADME, organism-based; conditions: rat
# [10] = Ratio Cmax/EC50 was determined; assay type: functional
Compound,EC50 (CCRF-CEM [1]),Ki [2],further results
O=C(Nc1ccccc1C(=O)N[C@@H](Cc1ccccc1)[C@H](O)[C@H](O)[C@H](Cc1ccccc1)NC(=O)c1ccno1)OCc1ccccn1,800 nM,0.4 nM,
Cc1ccccc1C(=O)N[C@@H](Cc1ccccc1)[C@@H](O)C[C@H](Cc1ccccc1)NC(=O)c1ccccc1NC(=O)OCc1ccccn1,500 nM,0.27 nM,
O=C(Nc1ccccc1C(=O)N[C@@H](Cc1ccccc1)C[C@H](O)[C@H](Cc1ccccc1)NC(=O)OCc1cccnc1)OCc1ccccn1,350 nM,0.01 nM,
Cc1c(O)cccc1C(=O)N[C@@H](Cc1ccccc1)[C@@H](O)[C@@H](O)[C@H](Cc1ccccc1)NC(=O)c1ccccc1NC(=O)OCc1ccccn1,20 nM,0.09 nM,
O=C(Nc1ccccc1C(=O)N[C@@H](Cc1ccccc1)[C@H](O)[C@H](O)[C@H](Cc1ccccc1)NC(=O)O[C@@H]1CCOC1)OCc1ccccn1,60 nM,0.07 nM,
CC(C)(C)OC(=O)N[C@@H](Cc1ccccc1)[C@H](O)[C@H](O)[C@H](Cc1ccccc1)NC(=O)c1ccccc1NC(=O)OCc1ccccn1,490 nM,0.45 nM,IC50 (CCRF-CEM [3]): 21000 nM
CC(C)(C)OC(=O)N[C@@H](Cc1ccccc1)[C@@H](O)[C@@H](O)[C@H](Cc1ccccc1)NC(=O)c1ccccc1NC(=O)OCc1ccccn1,400 nM,0.13 nM,
O=C(Nc1ccccc1C(=O)N[C@@H](Cc1ccccc1)[C@H](O)[C@H](O)[C@H](Cc1ccccc1)NC(=O)c1cccc(O)c1)OCc1ccccn1,,0.5 nM,EC50 (CCRF-CEM [4]): Not Active
O=C(Nc1ccccc1C(=O)N[C@@H](Cc1ccccc1)C[C@H](O)[C@H](Cc1ccccc1)NC(=O)OCc1cscn1)OCc1ccccn1,600 nM,0.62 nM,
O=C(Nc1ccccc1C(=O)N[C@@H](Cc1ccccc1)C[C@H](O)[C@H](Cc1ccccc1)NC(=O)c1cccc(O)c1)OCc1ccccn1,300 nM,0.85 nM,
CCOC(=O)N[C@@H](C(=O)N[C@@H](Cc1ccccc1)[C@@H](O)C[C@H](Cc1ccccc1)NC(=O)c1ccccc1NC(=O)OCc1ccccn1)C(C)C,7 nM,0.03 nM,
CC(C)(C)OC(=O)N[C@@H](Cc1ccccc1)C[C@H](O)[C@H](Cc1ccccc1)NC(=O)c1ccccc1NC(=O)OCc1ccccn1,490 nM,0.85 nM,
Nc1ccc(C(=O)N[C@@H](Cc2ccccc2)[C@@H](O)C[C@H](Cc2ccccc2)NC(=O)c2ccccc2NC(=O)OCc2ccccn2)cc1,500 nM,1.5 nM,
O=C(Nc1ccccc1C(=O)N[C@@H](Cc1ccccc1)[C@@H](O)C[C@H](Cc1ccccc1)NC(=O)c1cccc(O)c1)OCc1ccccn1,> 10000 nM,8.6 nM,
Cc1c(O)cccc1C(=O)N[C@@H](Cc1ccccc1)C[C@H](O)[C@H](Cc1ccccc1)NC(=O)c1ccccc1NC(=O)OCc1ccccn1,> 1000 nM,0.68 nM,
Nc1cccc(C(=O)N[C@@H](Cc2ccccc2)[C@@H](O)C[C@H](Cc2ccccc2)NC(=O)c2ccccc2NC(=O)OCc2ccccn2)c1,250 nM,0.4 nM,
Nc1ccc(C(=O)N[C@@H](Cc2ccccc2)[C@H](O)[C@H](O)[C@H](Cc2ccccc2)NC(=O)c2ccccc2NC(=O)OCc2ccccn2)cc1,,6.6 nM,EC50 (CCRF-CEM [4]): Not Active
O=C(Nc1ccccc1C(=O)N[C@@H](Cc1ccccc1)[C@H](O)[C@H](O)[C@H](Cc1ccccc1)NC(=O)c1ccccc1NC(=O)OCc1ccccn1)OCc1ccccn1,60 nM,0.07 nM,
CCOC(=O)N[C@H](C(=O)N[C@@H](Cc1ccccc1)[C@@H](O)C[C@H](Cc1ccccc1)NC(=O)c1ccccc1NC(=O)OCc1ccccn1)[C@@H](C)CC,50 nM,0.02 nM,
Cc1c(N)cccc1C(=O)N[C@@H](Cc1ccccc1)[C@@H](O)C[C@H](Cc1ccccc1)NC(=O)c1ccccc1NC(=O)OCc1ccccn1,60 nM,0.12 nM,bioavailability [5]: < 2%
O=C(Nc1ccccc1C(=O)N[C@@H](Cc1ccccc1)C[C@H](O)[C@H](Cc1ccccc1)NC(=O)O[C@@H]1CCOC1)OCc1ccccn1,30 nM,0.04 nM,bioavailability [5]: 6%; Cmax [6]: 1040 nM
CC(C)(C)OC(=O)N[C@@H](Cc1ccccc1)[C@@H](O)C[C@H](Cc1ccccc1)NC(=O)c1ccccc1NC(=O)OCc1ccccn1,600 nM,0.13 nM,
O=C(Nc1ccccc1C(=O)N[C@@H](Cc1ccccc1)C[C@H](O)[C@H](Cc1ccccc1)NC(=O)c1ccno1)OCc1ccccn1,2000 nM,1.2 nM,
O=C(Nc1ccccc1C(=O)N[C@@H](Cc1ccccc1)C[C@H](O)[C@H](Cc1ccccc1)NC(=O)c1cscn1)OCc1ccccn1,3000 nM,4.7 nM,
Cc1nc(C(=O)N[C@@H](Cc2ccccc2)[C@@H](O)C[C@H](Cc2ccccc2)NC(=O)c2ccccc2NC(=O)OCc2ccccn2)cs1,> 10000 nM,,inhibition [7]: 61%
O=C(Nc1ccccc1C(=O)N[C@@H](Cc1ccccc1)[C@@H](O)[C@@H](O)[C@H](Cc1ccccc1)NC(=O)c1cccc(O)c1)OCc1ccccn1,900 nM,1.7 nM,
Cc1c(O)cccc1C(=O)N[C@@H](Cc1ccccc1)[C@@H](O)C[C@H](Cc1ccccc1)NC(=O)c1ccccc1NC(=O)OCc1ccccn1,30 nM,0.06 nM,bioavailability [5]: 1%; Cmax [8]: 30 nM; half-life [9]: 2.22 h
O=C(Nc1ccccc1C(=O)N[C@@H](Cc1ccccc1)C[C@H](O)[C@H](Cc1ccccc1)NC(=O)OCc1cncs1)OCc1ccccn1,200 nM,0.03 nM,bioavailability [5]: 30%; half-life [9]: 8 h; Ratio [10]: > 30
